The subject of assay [1] is mouse neonatal primary cardiomyocyte culture. As to the kind of experiment: Oxygen-glucose deprivation/reoxygenation injury in primary cardiomyocytes. Type of assay: cell-based. The conditions noted are these: for amelioration of loss of cell number: Hoechst 33342 staining; for reduction of apoptosis: caspase 3/7 activation. How it is done:
In vitro ischemic injury was induced in mouse neonatal primary cardiomyocyte culture by oxygen-glucose deprivation for 18 hours and a 24 hours reoxygenation period in a humidified incubator with 5% CO2/95% air. Cardiomyocytes were incubated with the test compounds during 4 hours prior to the oxygen glucose depriviation (OGD) induction. The test compounds were also present during the OGD insult and during the 24 h-reoxygenation period. After the reoxygenation period, cell number was assessed by Hoechst 33342 staining, apoptosis was measured by determining caspase 3/7 activation, and cell membrane integrity or necrosis was measured as LDH release.
Data were expressed as mean±SD of three separate wells and individual comparisons were made with Student's t-test (SigmaPlot 9.0 program). The results were normalized to the normoxia-treated cells. Statistical significance (*) p<0.05 as compared to normoxia/DMSO-treated cells and (§) hypoxia/DMSO treated cells. Results

For assay [2], the system named is spontaneously beating neonatal rat cardiomyocytes (NRCMs). Briefly: Spontaneous beating rate of neonatal rat cardiomyocytes (anti-arrhythmic cell model). Format: cell-based. To be noted: 20 nM or 30 nM; comparison between analogs. How it is done:
The compounds include analogues being part of the invention (Comp-01 to Comp-05), which were synthesized as described in example 1, and additional related compounds (Comp-06 to Comp-13). A 1000-fold stock solutions in ethanol of the test compounds was prepared before use.
In order to measure the biological activities of metabolically robust analogs of CYP-eicosanoids an established cell model was used (Kang, J. X. et al., Proc Natl Acad Sci USA, 1994. 91(21): p. 9886-90). The spontaneously beating neonatal rat cardiomyocytes (NRCMs) are a model system to investigate anti-arrhythmic effects of test-compounds. […]
Isolation and cultivation of NRCMs were performed as described previously (Wallukat, G et al., J Clin Invest. 1999; 103: 945-952; Falck, J R et al., J Med Chem. 2011 Jun. 23; 54(12):4109-18). […] After four hours of incubation cells were adopted for 10 min to 31° C. and beating was recorded using an inverted microscope (Leica DM IRB) equipped with a CCD camera and coupled to an IonOptix (software: IonWizard6, IonOptix). To determine the basal rate, 6 to 8 individual clusters were selected and the number of contractions was counted for 15 sec. After that, the compound to be tested was added to the culture and the beating rate of the same clusters was monitored 5 min later again. […]

We go through two compounds from patent US11096910B2, “Metabolically robust analogs of CYP-eicosanoids for the treatment of cardiac disease” (OMEICOS THERAPEUTICS GMBH, priority 2015, dated 2021).

As for `CCC1OC1C/C=C\C/C=C\C/C=C\C/C=C\CCCC(=O)O` (stereo not shown) [17,18-EEQ, reference compound], in assay [1] (30 nM), the “reduction of cellular necrosis (LDH-release)” value came to 41%, the “amelioration of loss of cell number” value is on record as “did not significantly affect cell number” and the reduction of apoptosis result is on record as “not at the low concentration tested”. In assay [1] (10 μM), the “reduction of cellular necrosis (LDH-release)” value is recorded as 37%, the “amelioration of loss of cell number” value is recorded as “did not significantly affect cell number” and the reduction of apoptosis came out at 43%.

In the case of `CNC(=O)C(=O)NCCCCc1ccccc1CCCCCCOCC(=O)O` [Comp-05], the “negative chronotropic effect on NRCMs, in words” value in assay [2] is “without major loss of activity”.
